Reference: patent publication US20220184082A1, “CANCER THERAPY USING 3,5-DISUBSTITUTED BENZENE ALKYNYL COMPOUND AND PEMBROLIZUMAB” (TAIHO PHARMACEUTICAL CO., LTD., priority 2019, published 2022)

Key:
[1] = system: mouse breast cancer cell line 4T1; details: 4T1-implanted BALB/cAJcl mouse; oral daily 14 days, 15 and 30 mg/kg/day; Day 15
Experimental: On the day following the final administration (Day 15), lymphocyte fractions were isolated from the tumor, spleen, and peripheral blood, and myeloid-derived suppressor cells (MDSCs) (CD11b^+/Gr-1^+ cells), CD4-positive T cells, and CD8-positive T cells were measured using a cell sorter.

urothelial cancer = details: cited from earlier work

| Molecule | CD4-positive T cells in the peripheral blood lymphocyte fractions compared with the control [1] | CD8-positive T cells in the peripheral blood lymphocyte fractions compared with the control [1] | CD8-positive T cells in the spleen lymphocyte fractions compared with the control [1] | MDSCs in the peripheral blood lymphocyte fractions compared with the control [1] | Response by combined use with pembrolizumab (urothelial cancer; urothelial cancer patients without FGFR genetic aberration, combined with pembrolizumab) | Sensitivity state of the cancer to immune checkpoint inhibitors (urothelial cancer; urothelial cancer patients) |
| --- | --- | --- | --- | --- | --- | --- |
| C=CC(=O)N1CC[C@H](n2nc(C#Cc3cc(OC)cc(OC)c3)c3c(N)ncnc32)C1 [compound 1, (S)-1-(3-(4-amino-3-((3,5-dimethoxyphenyl)ethynyl)-1H-pyrazolo[3,4-d]pyrimidin-1-yl)pyrrolidin-1-yl)prop-2-en-1-one] | tended to increase in a dose-dependent manner | tended to increase in a dose-dependent manner | tended to increase in a dose-dependent manner | tended to decrease in a dose-dependent manner |  |  |
| vofatamab: an anti-FGFR3 antibody (antibody, chains of the INN, looked up, V domains shown) VH: EVQLVESGGGLVQPGGSLRLSCAASGFTFTSTGISWVRQAPGKGLEWVGRIYPTSGSTNYADSVKGRFTISADTSKNTAYLQMNSLRAEDTAVYYCARTYGIYDLYVDYTEYVMDYWGQGTLVTVSS VL: DIQMTQSPSSLSASVGDRVTITCRASQDVDTSLAWYKQKPGKAPKLLIYSASFLYSGVPSRFSGSGSGTDFTLTISSLQPEDFATYYCQQSTGHPQTFGQGTKVEIK |  |  |  |  | response by combined use with pembrolizumab is observed | change from a “cold” state (low sensitivity to immune checkpoint inhibitors) to a “hot” state (high sensitivity to immune checkpoint inhibitors) |
